This note sets out measurements from patent US11796610B2, “Compositions as molecular tags for hyperpolarization NMR and magnetic resonance and methods of making and using same” (Duke University, priority 2018, dated 2023).

Holding throughout (format): physicochemical
Data set [1] can be described thus: Hyperpolarization then cycloaddition with cyclooctyne 2: enhancement and lifetime of products. Conditions: methanol-d4; for signal enhancement over thermal spectra, product anti-phase (singlet) signal: tetrazine scalar order hyperpolarized at 0.3 mT, then 2 injected. The source says:
For the hyperpolarization of the cycloaddition products 3a and 3b, a solution of tetrazine (1a or 1b, respectively), pyridine, and Ir catalyst in methanol-d4 was first hyperpolarized at 0.4 μT or 0.3 mT, depending on which spin order was studied (solution preparation and hyperpolarization procedure described above in Example 4). After hyperpolarization, the para-H2 gas flow was stopped and the pressure was released through the exhaust outlet, after which the injection valve (shown in FIG. 5) was quickly opened to inject a solution of cyclooctyne 2 (4.5 mM) in methanol-d4 (200 μL) (equiv of tetrazine:2=1.0:1.5). Injection was completed in less than 1 second, and the sample was shaken for 3 seconds to reach complete reaction, visually evidenced by the color change from pink (i.e., the color of the tetrazine) to transparent. The sample was then manually transferred to an 8.5 T spectrometer for product signal read out.
Upon the cycloaddition reaction, a noticeable difference in chemical shift is observed on both nitrogen atoms (i.e., N1 and N2 in 1a vs. N1′ and N2′ in 3a). […] Hyperpolarized 3a and ^15N2 are observed. FIG. 3, panels c, e, and g show representative T1 or Ts decay measurements for product 3a magnetization, 3a singlet order, and 3b singlet order, respectively. […] FIG. 3, panels d, f, and h show lifetime measurement data, exponential fit of the data, and calculated T1 or Ts values for product 3a magnetization, 3a singlet order, and 3b singlet order, respectively. In the hyperpolarization-cycloaddition experiments, para-hydrogen was bubbled into a solution of ^15N4-1,2,4,5-tetrazine 1a or 1b (1.5 mM), pyridine (1.0 mM), and Ir(COD)(IMes)Cl (0.15 mM) in methanol-d4 (400 uL), then a solution of 2 (1.5 equivalents) in methanol-d4 (200 μL) was added. The sample was held at 0.3 mT for a variable amount of time before transport to the magnet for detection.

Data set [2] is described as follows: SABRE-SHEATH hyperpolarization of 15N4-1,2,4,5-tetrazines in methanol-d4. As to the method:
Unless otherwise described, a solution of ^15N-enriched tetrazine (1a or 1b, 1.5 mM), pyridine (1.0 mM), and Ir(IMes)(COD) Cl (0.15 mM) in methanol-d4 (400 μL) was prepared. Note: IMes=1,3-bis(2,4,6-trimethylphenyl) imidazol-2-ylidene; COD=1,5-cyclooctadiene.
The Ir catalyst was pre-activated by bubbling para-H2 through a solution of tetrazine, pyridine, and Ir catalyst (sample preparation described above) for 30 minutes. Following pre-activation, the tetrazine was hyperpolarized, either magnetization or singlet order.
To hyperpolarize magnetization, the solution was placed inside the magnetic shield, with the magnetic field adjusted to 0.4 μT (using a solenoid of 430 mm with 205 turns and a voltage of 7.5 V across 11.4 kOhms). After 3 minutes' bubbling of para-H2, the gas flow was stopped and the sample was manually transferred from the low field to an 8.5 T spectrometer for signal read out as quickly as possible. This manual transfer takes ˜8 seconds, and a 90° pulse-acquire sequence was used for read out.
To hyperpolarize singlet, the sample was placed at a magnetic field of 0.3 mT and para-H2 was bubbled through the solution for 3 minutes. As described in the above procedure, the sample was then manually transferred to an 8.5 T spectrometer as quickly as possible and detected using a 90° pulse-acquire sequence.
Depending on the magnetic field at which hyperpolarization was induced, in-phase signal (magnetization) or anti-phase signal (singlet) was observed. Enhancement values (ε) and polarization levels (p) were obtained by comparison of the hyperpolarized spectrum to a thermal reference spectrum of the respective ^15N4-1,2,4,5-tetrazine. […] Measurement at 0.3 mT. Sample as a solution of ^15N4-1,2,4,5-tetrazine (1.5 mM), pyridine (1.0 mM), and Ir(COD)(IMes)Cl (0.15 mM) in methanol-d4 (400 uL).
Hyperpolarization of 1a and 1b was examined by standard SABRE-SHEATH procedure, as reported by Theis et al. (“Direct and cost-efficient hyperpolarization of long-lived nuclear spin states on universal ^15N2-diazirine molecular tags,” Sci. Adv. 2, e1501438 (2016)). Two different hyperpolarized states for ^15N4-1,2,4,5-tetrazine 1a were observed, depending upon the chosen magnetic field at which the para-hydrogen gas is applied to the sample (FIG. 2b). At very low magnetic fields (˜0.4 μT), the ^15N spin pairs of the tetrazine are hyperpolarized in the triplet states and display in-phase signal upon detection at 8.45 T (i.e., magnetization is hyperpolarized). Conversely, at a relatively broad range of slightly elevated magnetic fields (˜0.2 mT<B<˜50 mT), anti-phase signals are observed after a 90° pulse. In this case, scalar order is hyperpolarized in the tetrazine spin pairs, associated with singlet states on ^15N-spin pairs; upon transfer to high magnetic field for detection, this scalar order is transformed into anti-aligned magnetization (I⋅S is adiabatically converted to Iz-Sz).

Data set [3] in a line: Concentration dependence of tetrazine hyperpolarization (enhancement and lifetime). Conditions: for T1 / Ts: decay at 0.3 mT. The procedure:
Using serial dilution, solutions of tetrazine 1a, pyridine, and Ir catalyst in methanol-d4 (400 μL) were prepared at different concentrations, but in the same ratio of each component: • (i) 1a (7.5 mM), pyridine (5.0 mM), and Ir(IMES)(COD)Cl (0.75 mM) • (ii) 1a (3.8 mM), pyridine (2.5 mM), and Ir(IMES)(COD)Cl (0.38 mM) • (iii) 1a (1.5 mM), pyridine (1.0 mM), and Ir(IMES)(COD)Cl (0.15 mM) (i.e., default concentrations of solution used in all other experiments) • (iv) 1a (0.60 mM), pyridine (0.40 mM), and Ir(IMES)(COD)Cl (0.060 mM)
For the rest of this section, samples are referred to by the concentration of tetrazine 1a comprising the solution. As described above, either magnetization or singlet tetrazine hyperpolarization was developed following pre-activation of the catalyst. After bubbling para-H^2 through the sample, the sample was transferred to 0.3 mT for a variable period of time. Following this delay, the sample was transported to the magnet and the spectrum was immediately recorded with a 90° pulse-acquire sequence. Triplet magnetization signal was deconvoluted from singlet signal, and fitted to a single exponential decay. Results are shown below in Table 1 and graphically in FIGS. 6a and 6b.

Data set [4] can be described thus: Hyperpolarization in aqueous media (3:1 methanol-d4:D2O, about 50° C.). The procedure: One important aspect of our bioorthogonal reaction-promoted hyperpolarization approach is the ability to exploit this scheme using an aqueous solvent, which is critical for many biological reactions and would widely broaden the applicability of this strategy. […] The best results were achieved using a 3:1 methanol-d4:D2O mixture and by elevating the temperature to about 50° C. using a water bath while bubbling para-H2 through the solution.
A solution of 2 was prepared in the same 3:1 methanol-d4:D2O mixed solvent and was injected after the hyperpolarization was established for the precursor tetrazine.

The nature of data set [5]: Dilution effect on hyperpolarization (injection of pure methanol-d4). Conditions: 200 μL methanol-d4 injected; singlet order at 0.3 mT. As to the method: To observe the effect of simple dilution on hyperpolarization, pure methanol-d4 was injected into a solution of hyperpolarized tetrazine to obtain a diluted hyperpolarized signal as follows: tetrazine 1a was hyperpolarized singlet order at 0.3 mT and the spectra were acquired (as described in Example 4). The sample was again bubbled with para-H2 for 3 minutes at 0.3 mT, then the pressure was released and the injection valve was opened, after which 200 μL of methanol-d4 was quickly injected and the sample was manually transferred into the magnet to read out the signal (detailed in Example 4, but with the key difference: pure methanol-d4 used instead of a solution of 2 in methanol-d4). […] The signal observed was about half of the signal before addition.

Data set [6] can be described thus: Kinetic characterization of tetrazine/cyclooctyne reaction. Conditions: 1.5 mM tetrazine, 1.5 equivalent of 2, CD3OD. The procedure: Emulating hyperpolarization conditions (below), a 1.5 mM solution of 1c (1 equivalent) in CD3OD (400 μL) was added to an NMR tube. To this solution, a 4.5 mM solution of 2 (1.5 equivalent) in CD3OD (200 μL) was added and the NMR tube was shaken vigorously. Immediately upon addition, the color of the solution changed from pink (due to the pink color of the tetrazine 1c) to colorless. As soon as the pink color completely dissipated (<2 seconds), the sample was placed into the NMR and a spectrum was acquired. The upper trace represents 1c and the lower trace represents 3c, i.e., the product of the cycloaddition reaction.

Data set [7] in a line: Injection and detection with small tip angle (product relaxation lifetime). Conditions: 15° tip angle, 6 consecutive spectra in the magnet, 1.6 s delay. As to the method: In addition to using a 90° pulse-acquire sequence for detection after injection, experiments using small tip angles (15° or 11.25°) were conducted to acquire a series of detection within a short time window (˜10 s), and to use that information to determine the relaxation lifetime of different spin orders of the hyperpolarized product.
FIG. 9, panel a: magnetization of ^15N-enriched tetrazine 1a is first hyperpolarized at 0.4 μT, then a solution of 2 in methanol-d4 is injected (as described in Example 4). Then, the sample is manually transferred as quickly as possible into the magnet, using 15° tip angle to acquire 6 spectra consecutively, with a 1.6 s delay between each acquisition. […] Panel b: singlet spin order of ^15N-enriched tetrazine 1a is first hyperpolarized at 0.3 mT, then a solution of 2 in methanol-d4 is injected (as described in Example 4). Then, the sample is manually transferred as quickly as possible into the magnet, using 11.25° tip angle to acquire 6 spectra consecutively, with a 1.6 s delay between each acquisition. […] Panels c-e: relaxation constant measurements of the hyperpolarized product magnetization, hyperpolarized ^15N2 gas, and hyperpolarized product singlet. The product magnetization has T1 lifetime of ˜6.9 s.

The mark [8] stands for this setting: at 0.3 mT, 1.5 mM in methanol-d4.
[9] abbreviates: tetrazine concentration 0.60 mM.
[10] abbreviates: tetrazine concentration 3.75 mM.
Setting [11] is: 3:1 methanol-d4:D2O, about 50° C.

As for `[2H]c1[15n][15n]c(-c2ccccc2)c2c1CC[C@H]1[C@@H](CO)[C@H]1CC2` [3b, (1-Phenyl-6,6a,7,7a,8,9-hexahydro-5H-cyclopropa[5,6]cycloocta[1,2-d]pyridazin-7-yl-4-d-2,3-^15N2)methanol], the “lifetime Ts of product” value in data set [1] (held at 0.3 mT) amounted to 24 ± 6 s. In addition, in data set [1], the “signal enhancement over thermal spectra, product anti-phase (singlet) signal” value is listed as 180 fold.

Regarding `c1ccc(-c2[15n][15n]c[15n][15n]2)cc1` [1a, 3-Phenyl-1,2,4,5-tetrazine-1,2,4,5-^15N4], the “lifetime of scalar order relative to magnetization” value in data set [2] (at 0.3 mT) is “about 2 times”. For the same molecule, in data set [2] (setting [8]), the “magnetization relaxation constant T1” value was determined as 1.4 ± 0.1 min and the “relaxation constant of the scalar order of the 15N spin pairs, Ts” value amounted to 2.7 ± 0.3 min. Also, in data set [2] (tetrazine 1.5 mM, pyridine 1.0 mM, Ir(COD)(IMes)Cl 0.15 mM in methanol-d4), the “signal enhancement over 8.45 T thermal measurements” value is listed as “up to 3,000 fold”. Moreover, in data set [3] (setting [9]), the “Singlet enhancement at 0 s delay (normalized to 1.5 mM singlet, %)” value was found to be 96%; the “Z-Magnetization enhancement at 0 s delay (normalized to 1.5 mM Z-magnetization, %)” value turned out to be 130%; the T1 was determined as 74 s; the Ts turned out to be 357 s. Besides, in data set [3] (tetrazine concentration 1.5 mM), the “Singlet enhancement at 0 s delay (normalized to 1.5 mM singlet, %)” value is 100%; the “Z-Magnetization enhancement at 0 s delay (normalized to 1.5 mM Z-magnetization, %)” value came out at 100%; the T1 is 91 s; the Ts was determined as 137 s. For the same molecule, in data set [3] (setting [10]), the “Singlet enhancement at 0 s delay (normalized to 1.5 mM singlet, %)” value was 77%; the “Z-Magnetization enhancement at 0 s delay (normalized to 1.5 mM Z-magnetization, %)” value amounted to 86%; the T1 is 72 s; the Ts is listed as 58 s. Besides, in data set [3] (tetrazine concentration 7.5 mM), the “Singlet enhancement at 0 s delay (normalized to 1.5 mM singlet, %)” value was 56%; the “Z-Magnetization enhancement at 0 s delay (normalized to 1.5 mM Z-magnetization, %)” value worked out at 66%; the T1 worked out at 47 s; the Ts was determined as 48 s. In addition, in data set [4] (setting [11]), the “enhancement compared to that in neat methanol-d4” value was “about 30%” and the signal enhancement was roughly 900 fold. Further, the “hyperpolarized singlet signal after dilution relative to signal before addition” value in data set [5] is recorded as “about half”.

Consider `c1ccc(-c2nncnn2)cc1` [1c, 3-Phenyl-1,2,4,5-tetrazine], for which the “time until pink color completely dissipated on reaction with 2” value in data set [6] was less than 2 s.

For the molecule `OC[C@H]1[C@H]2CCc3c(c[15n][15n]c3-c3ccccc3)CC[C@@H]12` (racemic) [3a, (1-Phenyl-6,6a,7,7a,8,9-hexahydro-5H-cyclopropa[5,6]cycloocta[1,2-d]pyridazin-7-yl-2,3-15N2)methanol], in data set [1] (held at 0.3 mT), the “lifetime Ts of product” value stood at 13 ± 2 s and the “magnetization lifetime T1 of product” value was found to be 13 ± 4 s. Besides, in data set [1] (tetrazine magnetization hyperpolarized at 0.4 μT, then 2 added at 0.3 mT), the “enhancement over thermal spectra, hyperpolarized product magnetization” value was 540 fold. For the same molecule, in data set [1], the “signal enhancement over thermal spectra, product anti-phase (singlet) signal” value worked out at 140 fold. For the same molecule, the “product magnetization T1 lifetime” value in data set [7] is listed as roughly 6.9 s. The “hyperpolarized signal from cycloaddition product” value in data set [4] (3:1 CD3OD:D2O, 50° C.) is recorded as “detected the hyperpolarized signal”.

Take `[2H]c1[15n][15n]c(-c2ccccc2)[15n][15n]1` [1b, 3-Phenyl-1,2,4,5-tetrazine-6-d-1,2,4,5-^15N4]: the “relaxation constant of the scalar order of the 15N spin pairs, Ts” value in data set [2] (setting [8]) amounted to 2.1 ± 0.7 min. The “enhancement of hyperpolarized scalar order” value in data set [2] (singlet mode, 1.5 mM in methanol-d4) was 2900 fold. For the same molecule, the “hyperpolarized magnetization (T1) obtainable” value in data set [2] (μT fields) is on record as “not possible to create the hyperpolarized magnetization”.
